Experimental data reported in PubChem BioAssay (NCI).
Values joined by “and” are separate entries in the source; they are usually repeats but may differ in a detail not shown here. Equal entries are not always repeated.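 1) Cells in 96-well plates. 2) Compound, 48 h, 5 concentrations. 3) Linear interpolation between surrounding doses. 4) Unreached endpoint = highest concentration. At the GI50, growth is halved. TGI is the concentration that stops growth completely.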

Assays:
Assay in all cases: inhibition of tumour cell growth, NCI panel, 48 h
[1] = system: 786-0 renal
[2] = system: A498 renal
[3] = system: COLO 205 colon
[4] = system: DU-145 prostate
[5] = system: HCT-15 colon
[6] = system: LOX IMVI melanoma
[7] = system: MCF7 breast
[8] = system: MDA-MB-231 breast
[9] = system: OVCAR-4 ovarian
[10] = system: OVCAR-5 ovarian
[11] = system: PC-3 prostate
[12] = system: SF-268 CNS
[13] = system: TK-10 renal
[14] = system: UACC-62 melanoma

| Compound | TGI [1] | TGI [2] [µM] | TGI [3] [µM] | TGI [4] [µM] | TGI [5] | TGI [6] | TGI [7] | TGI [8] | TGI [9] | TGI [10] | TGI [11] [µM] | TGI [12] | TGI [13] [µM] | TGI [14] [µM] | GI50 [3] | GI50 [6] | GI50 [7] | GI50 [8] | GI50 [13] | GI50 [14] |
| --- | --- | --- | --- | --- | --- | --- | --- | --- | --- | --- | --- | --- | --- | --- | --- | --- | --- | --- | --- | --- |
| O=C(N/N=C\c1cccc2c([N+](=O)[O-])cccc12)Nc1ccccc1 | 35.1 µM | 33.4 | 50.7 | 66.1 | 25.5 µM | 25.4 µM | 26.7 µM | 49.4 µM | 29.2 µM | 30.5 µM | 32.7 | 73 µM | 27.3 | 24.4 |  |  |  |  |  |  |
| Cc1c(S(=O)(=O)/N=C(\NO)Nc2ccc(Cl)c(Cl)c2)sc2ccc(Cl)cc12 | 39.6 µM | 38.2 | 35.7 | 37.1 | 35.7 µM | 43.3 µM | 86.8 µM | 55.3 µM | 32.3 µM | 38.2 µM | 36.7 | 58.8 µM | 34.4 | 37.2 |  |  |  |  |  |  |
| COc1cc(/C=C2/C[C@H]3[C@@H]4CC=C5C[C@@H](O)CC[C@]5(C)[C@H]4CC[C@]3(C)NC2=O)cc(OC)c1OC | 57.1 µM | 55 | > 57.9 | 23.4 | > 59.5 µM | > 100 µM | > 77.5 µM | > 55.7 µM | > 86.5 µM | > 75.7 µM | 79.4 | 23.4 µM | > 82.1 | 75.4 |  |  |  |  |  |  |
| Cc1ccc2c(c1)C(C(=O)N[C@@H]1C(=O)N3[C@@H]1SC(C)(C)[C@@H]3C(=O)O)OCCC2 (some centres undefined) | > 100 µM | > 100 | > 100 | > 100 | > 100 µM | > 100 µM | > 100 µM | > 100 µM | > 100 µM | > 100 µM | > 100 | > 100 µM | > 100 | > 100 |  |  |  |  |  |  |
| CC(=O)OCC12C(=O)C[C@@H](C)C3(CC(c4ccoc4)OC3=O)C1CCC(OC(C)=O)C21CO1 (some centres undefined) | > 100 µM | > 100 | > 100 | > 100 | > 100 µM | > 100 µM | > 100 µM | > 100 µM | > 100 µM | > 100 µM | > 100 | > 100 µM | > 100 | > 100 |  |  |  |  |  |  |
| CSc1ccc2c(cc1=O)[C@@H](NC(=O)c1ccc(N)cc1)CCc1cc(O)c(O)c(O)c1-2 | 27.6 µM and 41.1 µM | > 100 | > 100 | > 100 | 26 µM and 42.4 µM | > 75 µM and 22.9 µM | 21.7 µM and > 100 µM | > 75 µM and 79.6 µM | 34.1 µM and 54 µM | 66.3 µM and > 100 µM | > 100 | 47.8 µM and > 100 µM | > 100 | > 100 | 31.7 µM and 4.04 µM | 12 µM and 4.07 µM | 9.14 µM and 3.83 µM | 47.2 µM and 19.9 µM | 24.2 µM and > 100 µM | 21.5 µM and 7.58 µM |
| COc1cc(Cn2c3c(c4cc(O)ccc42)Cc2ccccc2C3=O)cc(OC)c1 | > 100 µM | > 100 | > 100 | > 100 | > 100 µM | > 100 µM | 78.6 µM | > 100 µM | > 100 µM | 56.2 µM | > 100 | > 100 µM | > 100 | > 100 |  |  |  |  |  |  |
| COc1cccc(-c2ccc3c4c2O[C@H]2C(=O)CC[C@@]5(O)[C@@H](C3)N(CC3CC3)CC[C@]425)c1 | 32.1 µM | 34.1 | 26.7 | 63.4 | 29.3 µM | 30.9 µM | 31 µM | 30.3 µM | 31.4 µM | 35.7 µM | 29.2 | 40.3 µM | 32.2 | 32.7 |  |  |  |  |  |  |
| O=c1cc(-c2ccc(F)cc2)[nH]c2ncc(Cl)cc12 | > 100 µM | 53.6 | > 100 | > 74.4 | > 100 µM | > 100 µM | > 100 µM | > 100 µM | > 100 µM | > 100 µM | > 100 | > 100 µM | > 100 | > 100 |  |  |  |  |  |  |
| Nc1cc2[nH]c(=O)c(=O)[nH]c2cc1N | > 100 µM | > 100 | > 100 | > 100 | > 100 µM | > 100 µM | > 100 µM | > 100 µM | > 100 µM | > 100 µM | > 100 | > 100 µM | > 100 | > 100 |  |  |  |  |  |  |
| CC1OC(OC2C(O[C@H]3CC[C@@]4(C)C(=CC[C@H]5[C@@H]6C[C@@H]7O[C@]8(CC[C@@H](CO)CO8)[C@@H](C)[C@@H]7[C@@]6(C)CC[C@@H]54)C3)OC(CO)C(O)C2OC2OC(CO)C(O)C(O)C2O)C(O)C(O)C1O (some centres undefined) | 3.3 µM | 3.82 | 3.42 | 3.34 | 3.94 µM | 3.39 µM | 3.15 µM | 3.25 µM | 3.69 µM | 4.08 µM | 3.33 | 3.54 µM | 3.08 | 3.23 |  |  |  |  |  |  |
| COc1ccc(C(=C(Cl)c2ccccc2)c2ccc(OC)cc2)cc1 | > 100 µM | > 100 | > 100 | > 100 | > 100 µM | > 100 µM | > 100 µM | > 100 µM | > 100 µM | > 100 µM | > 100 | > 100 µM | > 100 | > 100 |  |  |  |  |  |  |
